Experimental data taken from PubChem BioAssay (NCI).
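Compound exposure: 48 hours, 5 concentrations, 96-well plates. At the GI50, growth is halved. TGI denotes the concentration required for complete inhibition of growth.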

Tests used:
Assay in all cases: inhibition of tumour cell growth, NCI panel, 48 h
[1] = tested on: SK-MEL-5 melanoma
[2] = tested on: SNB-19 CNS
[3] = tested on: LOX IMVI melanoma
[4] = tested on: RXF 393 renal
[5] = tested on: 786-0 renal
[6] = tested on: ACHN renal
[7] = tested on: TK-10 renal
[8] = tested on: MDA-MB-435
[9] = tested on: NCI/ADR-RES ovarian
[10] = tested on: M14 melanoma
[11] = tested on: HL-60(TB) leukemia
[12] = tested on: MCF7 breast
[13] = tested on: SF-539 CNS
[14] = tested on: HCC-2998 colon
[15] = tested on: OVCAR-3 ovarian
[16] = tested on: IGROV1 ovarian
[17] = tested on: U251 CNS
[18] = tested on: OVCAR-5 ovarian
[19] = tested on: MDA-MB-231 breast
[20] = tested on: DU-145 prostate
[21] = tested on: HCT-116 colon
[22] = tested on: T-47D breast
[23] = tested on: HT29 colon
[24] = tested on: RPMI-8226 leukemia
[25] = tested on: CCRF-CEM leukemia
[26] = tested on: SNB-75 CNS
[27] = tested on: K-562 leukemia
[28] = tested on: OVCAR-8 ovarian
[29] = tested on: SW-620 colon
[30] = tested on: HS 578T breast
[31] = tested on: SK-MEL-2 melanoma
[32] = tested on: NCI-H226 lung
[33] = tested on: HOP-62 NSCLC
[34] = tested on: A549 NSCLC
[35] = tested on: PC-3 prostate
[36] = tested on: A498 renal
[37] = tested on: MOLT-4 leukemia
[38] = tested on: BT-549 breast
[39] = tested on: UO-31 renal
[40] = tested on: OVCAR-4 ovarian
[41] = tested on: HCT-15 colon
[42] = tested on: SF-268 CNS
[43] = tested on: CAKI-1 renal
[44] = tested on: UACC-62 melanoma
[45] = tested on: SR leukemia
[46] = tested on: NCI-H522 lung
[47] = tested on: SN12C renal
[48] = tested on: SF-295 CNS
[49] = tested on: COLO 205 colon
[50] = tested on: NCI-H23 lung
[51] = tested on: MALME-3M melanoma
[52] = tested on: NCI-H460 lung
[53] = tested on: UACC-257 melanoma
[54] = tested on: KM12 colon
[55] = tested on: SK-OV-3 ovarian
[56] = tested on: SK-MEL-28 melanoma
[57] = tested on: HOP-92 NSCLC
[58] = tested on: EKVX NSCLC

Cn1cc(C2=C(c3cn(CCCO)c4ccccc34)C(=O)NC2=O)c2ccccc21
GI50 [1]: 4.2 µM
TGI [1]: 10.8 µM
GI50 [2]: 9.36 µM
TGI [2]: > 25 µM
GI50 [3]: 6.12 µM
TGI [3]: > 21.4 µM
GI50 [4]: 3.87 µM
TGI [4]: 9.56 µM
GI50 [5]: 7.03 µM
TGI [5]: > 22.8 µM
GI50 [6]: 4.99 µM
TGI [6]: 19.8 µM
GI50 [7]: 3.96 µM
TGI [7]: 13.3 µM
GI50 [8]: 2.34 µM
TGI [8]: > 25 µM
GI50 [9]: 7.23 µM
TGI [9]: > 22.8 µM
GI50 [10]: 7.29 µM
TGI [10]: > 25 µM
GI50 [11]: 6.1 µM
TGI [11]: 15.3 µM
GI50 [12]: 2.66 µM
TGI [12]: 17.4 µM
GI50 [13]: 4.57 µM
TGI [13]: 11.4 µM
GI50 [14]: 7.83 µM
TGI [14]: > 25 µM
GI50 [15]: 6 µM
TGI [15]: > 19.5 µM
GI50 [16]: 6.04 µM
TGI [16]: 16.6 µM
GI50 [17]: 6.15 µM
TGI [17]: 19.3 µM
GI50 [18]: 11.4 µM
TGI [18]: > 25 µM
GI50 [19]: 9.38 µM
TGI [19]: > 25 µM
GI50 [20]: 6.97 µM
TGI [20]: > 22.5 µM
GI50 [21]: 4.62 µM
TGI [21]: > 17.7 µM
GI50 [22]: 4.94 µM
TGI [22]: 18.6 µM
GI50 [23]: 5.4 µM
TGI [23]: > 19.3 µM
GI50 [24]: 5.97 µM
TGI [24]: 15 µM
GI50 [25]: 3.01 µM
TGI [25]: 18.2 µM
GI50 [26]: 3.11 µM
TGI [26]: 12.3 µM
GI50 [27]: 5.61 µM
TGI [27]: > 25 µM
GI50 [28]: 6.4 µM
TGI [28]: > 21.1 µM
GI50 [29]: 7.11 µM
TGI [29]: > 25 µM
GI50 [30]: 5.35 µM
TGI [30]: 17.3 µM
GI50 [31]: 1.79 µM
TGI [31]: 4.72 µM
GI50 [32]: 5.05 µM
TGI [32]: 19.1 µM
GI50 [33]: 7 µM
TGI [33]: 19.5 µM
GI50 [34]: 5.68 µM
TGI [34]: 17.5 µM
GI50 [35]: 6.8 µM
TGI [35]: 24.6 µM
GI50 [36]: 5.45 µM
TGI [36]: 13.9 µM
GI50 [37]: 6.05 µM
TGI [37]: > 20.7 µM
GI50 [38]: 3.76 µM
TGI [38]: 11.5 µM
GI50 [39]: 4.04 µM
TGI [39]: 14 µM
GI50 [40]: 4.63 µM
TGI [40]: > 20.7 µM
GI50 [41]: 3.33 µM
TGI [41]: > 25 µM
GI50 [42]: 6.11 µM
TGI [42]: 17.6 µM
GI50 [43]: 3.93 µM
TGI [43]: 16.9 µM
GI50 [44]: 5.56 µM
TGI [44]: 12.3 µM
GI50 [45]: 2.71 µM
TGI [45]: > 19.1 µM
GI50 [46]: 3.47 µM
TGI [46]: 13.2 µM
GI50 [47]: 5.25 µM
TGI [47]: > 25 µM
GI50 [48]: 5.11 µM
TGI [48]: > 17 µM
GI50 [49]: 5.39 µM
TGI [49]: 16 µM
GI50 [50]: 5.37 µM
TGI [50]: 18 µM
GI50 [51]: 8.52 µM
TGI [51]: 21.3 µM
GI50 [52]: 4.9 µM
TGI [52]: 12.5 µM
GI50 [53]: 8.15 µM
TGI [53]: 24.7 µM
GI50 [54]: 1.77 µM
TGI [54]: 16.8 µM
GI50 [55]: 4.29 µM
TGI [55]: > 22.1 µM
GI50 [56]: 6.49 µM
TGI [56]: 18.8 µM

CN(C)CCNc1ccc(NCCN(C)C)c2c1C(=O)c1ncsc1C2=O
TGI [1]: 31.6 µM
TGI [2]: 51 µM
TGI [3]: 29.5 µM
TGI [4]: 41 µM
TGI [5]: 24 µM
TGI [6]: 22.7 µM
TGI [7]: 58.2 µM
TGI [8]: 27.8 µM
TGI [9]: > 100 µM
TGI [10]: 36.6 µM
TGI [12]: 21.3 µM
TGI [13]: 28.1 µM
TGI [14]: 31.3 µM
TGI [15]: 37.2 µM
TGI [16]: 28.1 µM
TGI [17]: 29.7 µM
TGI [18]: 55.3 µM
TGI [19]: 32.2 µM
TGI [20]: 25.9 µM
TGI [57]: 29.9 µM
TGI [21]: 22.7 µM
TGI [22]: > 100 µM
TGI [23]: 19.7 µM
TGI [24]: 29.4 µM
TGI [25]: 10.9 µM
TGI [26]: 33 µM
TGI [27]: 34.3 µM
TGI [28]: 27.8 µM
TGI [29]: 29.7 µM
TGI [30]: 50.3 µM
TGI [31]: 42.7 µM
TGI [32]: 17.7 µM
TGI [33]: 43.6 µM
TGI [34]: 31.3 µM
TGI [35]: 38.1 µM
TGI [36]: 28.1 µM
TGI [37]: 5.57 µM
TGI [38]: 35.1 µM
TGI [39]: 32.2 µM
TGI [40]: 25.1 µM
TGI [41]: 27.6 µM
TGI [42]: 39.3 µM
TGI [43]: 57.5 µM
TGI [44]: 24.6 µM
TGI [45]: 4.39 µM
TGI [46]: 31.7 µM
TGI [58]: 26.4 µM
TGI [47]: 25.7 µM
TGI [48]: 26.6 µM
TGI [49]: 31.1 µM
TGI [50]: 30 µM
TGI [53]: 34.7 µM
TGI [54]: 25.2 µM
TGI [55]: 38.8 µM
TGI [56]: 33.7 µM
